According to US6313179A, “Treatment of hyperproliferative skin disorders with C18 to C20 aliphatic alcohols” (Avanir Pharmaceuticals, priority 1998, dated 2001):
Several values for one entry are separate records, joined by “and”; a condition that tells them apart may be missing. Equal entries are not always repeated.

Assays:
[1] = tested on: normal skin fibroblast (ATCC CRL 1900) cells; assay: Radiolabeled n-docosanol binding to normal skin fibroblasts (Example 3); assay type: cell-based; settings: Table 4, n-[1-14C]docosanol 3 mM, 24 hours
Protocol: (§1) The following experiment examined the effect of n-docosanol on cell proliferation and quantitation of n-[1-^14 C]docosanol binding to keloid, Vero (normal African green monkey kidney; ATCC CCL 81) and normal skin fibroblast (ATCC CRL 1900) cells.
(§2) Human keloid fibroblasts, normal control skin fibroblasts and Vero cells were obtained from ATCC. n-Docosanol (30 mM) was suspended in Pluronic F-68 (1.2 mM) as described previously (Katz et al., ibid). A vehicle control was prepared using the same procedure except for the omission of n-docosanol. Radiolabeled n-[1-^14 C] docosanol suspension was prepared as described by Katz et al. (ibid.). Cells were resuspended in 1.2×10^6 cells/ml in DMEM supplemented with 10% fetal calf serum, sodium pyruvate, L-glutamine and penicillin-streptomycin. Cell suspension (0.5 ml) was added to each 35 mm well containing 1.3 ml media, followed by addition of 0.2 ml radiolabeled n-docosanol suspension (final n-docosanol concentration=3 mM). After 24 hours at 37° C. in humidified 10% CO2, the suspension was removed, wells were washed extensively with saline and cells were solubilized for scintillation counting by incubation with 0.5 ml trypsin for 15 min at 37° C. Solubilized cells were counted in a Beckman LS6000 scintillation counter. […] The number of viable cells was determined by trypan blue staining.

[2] = tested on: Vero (normal African green monkey kidney; ATCC CCL 81) cells; assay: Radiolabeled n-docosanol binding to Vero cells (Example 3); assay type: cell-based; settings: Table 4, n-[1-14C]docosanol 3 mM, 24 hours
Protocol: as §1, §2

[3] = tested on: normal skin fibroblast (ATCC CRL 1900) cells; assay: Proliferation study, normal skin fibroblasts (Example 3); assay type: cell-based
Protocol: as §1
(§3) Human keloid fibroblasts, normal control skin fibroblasts and Vero cells were obtained from ATCC. n-Docosanol (30 mM) was suspended in Pluronic F-68 (1.2 mM) as described previously (Katz et al., ibid). A vehicle control was prepared using the same procedure except for the omission of n-docosanol. Radiolabeled n-[1-^14 C] docosanol suspension was prepared as described by Katz et al. (ibid.). Cells were resuspended in 1.2×10^6 cells/ml in DMEM supplemented with 10% fetal calf serum, sodium pyruvate, L-glutamine and penicillin-streptomycin. Cell suspension (0.5 ml) was added to each 35 mm well containing 1.3 ml media, followed by addition of 0.2 ml radiolabeled n-docosanol suspension (final n-docosanol concentration=3 mM). After 24 hours at 37° C. in humidified 10% CO2, the suspension was removed, wells were washed extensively with saline and cells were solubilized for scintillation counting by incubation with 0.5 ml trypsin for 15 min at 37° C. Solubilized cells were counted in a Beckman LS6000 scintillation counter. Samples were corrected for nonspecific binding to plates by subtracting values obtained in control wells lacking cells. To determine cell number, duplicate plates were treated with non-radiolabeled n-docosanol or control suspension at the same concentration or were left untreated. The number of viable cells was determined by trypan blue staining.

[4] = tested on: Human keloid fibroblasts; assay: Radiolabeled n-docosanol binding to keloid cells (Example 3); assay type: cell-based; settings: 24 hours
Protocol: as §3

[5] = tested on: keloid scarring; assay: Treatment of keloid scar formation with n-docosanol cream, case report (Example 4); assay type: in vivo, Human
Source text: The patient presented with a one year history of progressive bilateral facial keloid scarring. The precise cause of injury is unknown, but appears to have been initiated as a result of work-relatedexposure to some aerosolized irritant at a high rise building construction site. During the time of exposure, the patient was working in an area in which noxious fumes were known to exist, and they were wearing a filtration face mask for protection against inhalation exposure. Since the resulting wounds occurred in a pattern which appeared to outline the edges of the protective face mask, the injury may reflect some type of chemical burn resulting from concentration of aerosolized irritants with perspiration at the edge of the face mask.
During the ensuing year after onset of this process, the patient was seen on several occasions in the dermatology division of a major local hospital and attempts were made to arrest the process by intradermal steroid injections at the affected sites. This treatment approach was ineffective. When the patient was first seen by the inventors, they had extensive and disfiguring bilateral scars on the face and a large ulcerated lesion at the lower end of the process on the right side of the face. There was keloid scarring on both the right and left sides of the face manifested as typical "ropey and cord-like" tissue deposition and depigmentation. The right side of the face was noticeably swollen presumably as a result of the active ulceration process at the lower end of the lesions. The patient complained of pain along both areas of scarring, particularly at the more distal ends of the lesions. They admitted to social withdrawal as a result of embarrassment about their appearance and extreme frustration about the apparent futility of obtaining any help to arrest or reverse the process.
After thoroughly explaining the experimental aspects of the therapeutic regimen, the patient volunteered to enter a study in which cream containing either 15% or 10% n-docosanol as active ingredient was to be applied to the affected areas. These topical cream formulations are described in U.S. Pat. No. 5,534,554, the entire contents of which are incorporated by reference. Initially, applications of cream containing 15% n-docosanol were made three times daily. This cream formulation contained, in addition to 15% n-docosanol, […], 5.0% sucrose cocoate, 8.0% mineral oil NF, 5.0% propylene glycol USP, 2-ethyl-1,3-hexanediol and 58.3% purified water (all weight percent). After one month on this regimen, the patient was changed to cream containing 10% n-docosanol and the application frequency was reduced to two times daily, after showering in the morning and just before bed in the evening. This cream composition contained, in addition to 10% n-docosanol,5.0% sucrose stearates, 8.0% mineral oil NF, 5.0% propylene glycol USP, 2.7% benzyl alcohol NF and 69.3% purified water.

[6] = concentrations up to 300 mM; cited from earlier work
[7] = tested on: cutaneous Kaposi's sarcoma; assay: Treatment of Kaposi's sarcoma with 10% n-docosanol cream (Example 6); assay type: in vivo, Human; settings: 10% cream
Protocol: HIV-positive male patients presenting with treatment-resistant cutaneous Kaposi's sarcoma were treated for 28 days, 5 times daily with the 10% n-docosanol cream formulation described in Example 4. Response to treatment was evaluated according to lesion dimensions, color of the lesion and the type of lesion (hard, soft or nodule). The data were recorded on intermittent days throughout the 28 days of the study and values were compared to baseline observations made on Day 1. Three target lesions were evaluated in each patient. Thus far, five patients have completed the study.

[8] = 15% cream three times daily, within 48 hours
[9] = 15% cream, by the end of the second week, patient perception
[10] = one patient, Day 15 and thereafter

CCCCCCCCCCCCCCCCCCCCCCO [n-docosanol]
Binding per 10^6 cells [1]: 15.6 μg | Binding per 10^6 cells [2]: 8.9 μg | number of CRL-1900 normal skin fibroblasts (in words) ([3]; 3 mM, one day incubation): not decreased | activity at 3000 µM ([3]; Skin fibroblast, Table 4, CRL-1900, 3 mM, 24 hours, compared to cells incubated with no addition, read-out: % ctrl): 98% | No. cells ([3]; Table 4, CRL-1900, 3 mM, 24 hours): 5.4 × 10^5 cells | growth of normal cells (in words) ([3]; under the tissue culture conditions used, general statement on normal cells): unaffected | amount of radiolabeled n-docosanol bound to keloid as compared to CRL 1900 cells ([4]; 3 mM, vs CRL 1900): About three | Binding per 10^6 cells ([4]; Table 4, Keloid, n-[1-14C]docosanol 3 mM): 45.5 μg | extent of elevation of the keloid scarring ([5]; 15% cream one month, then 10% cream twice daily, three months): clear reduction in the extent of elevation of the keloid scarring | pain around the lesions ([5]; 15% cream three times daily, almost immediately after onset of therapy): significant diminution in pain | granulation within the ulcerated lesion [5, 8]: onset of granulation | swelling on the right side of the face [5, 8]: significant reduction in swelling | suppleness of the overlying dermis [5, 9]: greater suppleness of the overlying dermis | tightness and thickness of the keloids [5, 9]: diminution in tightness and thickness of the keloids | pigmentation in the affected areas ([5]; 15% then 10% cream, one year): almost complete return to normal pigmentation | ropey and cord-like elevations ([5]; 15% then 10% cream, one year): a flattening of the previously ropey and cord-like elevations | scar tissue ([5]; 15% then 10% cream, one year): significant reduction of scar tissue | skin pigmentation ([5]; 15% then 10% cream, three months): considerable improvement in skin pigmentation | scar defect at the site of the healed ulcerated lesion ([5]; 15% then 10% cream, three months, compared to right temple line scar): much smaller scar defect | adverse reactions ([5]; during the course of treatment): no adverse reactions | keloid formation in a patient (in words) ([5]; patient for whom other treatments had not been successful): significantly reduced hyperproliferative keloid formation | cytotoxicity [6]: not cytotoxic in concentrations up to 300 mM | patients with a response (reduction in the size of the lesions) ([7]; Day 28 vs Day 1): three out of five | lesions with reduction in size, two patients ([7]; Day 28 vs Day 1, each of two patients): 3 out of 3 | lesions with reduction in size, one patient ([7]; Day 28 vs Day 1, one patient): 2 out of 3 | color changes in lesions ([7]; all five patients, all lesions): color changes in all lesions to a lighter color | increase in lesion size ([7]; any of the 15 lesions studied): not observed | disappearance of lesion ([7]; by Day 3, one lesion): One lesion completely disappeared by Day 3 | clinically observed swelling [7, 10]: decrease in the clinically observed swelling | pain of lesions [7, 10]: less painful | Day 28 Color ([7]; Table 5, 5 times daily, 28 days, per patient and lesion): pale and gone and pale pink and very pale and pink and tan and lighter | percent reduction in lesion size ([7]; Table 5, Day 28 vs Day 1, 5 times daily, per patient and lesion): 75% and gone and 74% and 19% and 20% and 0% and 28% and 10%
